According to patent US20260262643A1, “HERBICIDAL BENZOXAZINES” (FMC CORPORATION, priority 2022, published 2026):

Legend:
ryegrass, Italian [1] = assay: Test C postemergence; type: in vivo, Lolium multiflorum; conditions: 10 days
Procedure, shortened: (§1)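 Seeds in loam–sand blend received preemergence directed soil spray of test chemicals in non-phytotoxic solvent with surfactant; postemergence treatment was applied at one- to two-leaf stage (2–10 cm). After 10 days in greenhouse, injury rated visually versus untreated controls, 0 (no effect) to 100 (complete control).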

blackgrass [2] = assay: Test C preemergence; type: in vivo, Alopecurus myosuroides; conditions: for Plant response rating, Blackgrass: Preemergence; for Blackgrass plant response rating: preemergence
Procedure, shortened: as §1

ducksalad = assay: Test D flooded paddy test; type: in vivo, Heteranthera limosa; conditions: 250 g ai/ha, applied to paddy water, visual rating after 13 to 14 days, scale 0 to 100 (0 no effect, 100 complete control)
Procedure, shortened: (§2)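 Plants at the 2-leaf stage were grown in pots flooded to 3 cm, and compound was applied directly into the paddy water, with depth kept throughout. After 13–14 days in a greenhouse, injury was rated visually against untreated controls on a 0–100 scale (100 = complete control); a dash means not tested.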

barnyardgrass [3] = assay: Test C postemergence; type: in vivo, Echinochloa crusgalli; conditions: 10 days
Procedure, shortened: as §1

ragweed [4] = assay: Test C postemergence; type: in vivo, Ambrosia artemisiifolia; conditions: 10 days
Procedure, shortened: as §1

kochia [5] = assay: Test C postemergence; type: in vivo, Bassia scoparia; conditions: 10 days
Procedure, shortened: as §1

wheat [6] = assay: Test C postemergence; type: in vivo, Triticum aestivum; conditions: 10 days
Procedure, shortened: as §1

oat, wild [7] = assay: Test C postemergence; type: in vivo, Avena fatua; conditions: 10 days
Procedure, shortened: as §1

kochia [8] = assay: Test C preemergence; type: in vivo, Bassia scoparia; conditions: for Plant response rating, Kochia: Preemergence; for Kochia plant response rating: preemergence
Procedure, shortened: as §1

corn [9] = assay: Test C preemergence; type: in vivo, Zea mays; conditions: for Plant response rating, Corn: Preemergence; for Corn plant response rating: preemergence
Procedure, shortened: as §1

green foxtail [10] = assay: Test C preemergence; type: in vivo, Setaria viridis; conditions: for Plant response rating, Foxtail, Green: Preemergence; for Foxtail, Green plant response rating: preemergence
Procedure, shortened: as §1

wheat [11] = assay: Test C preemergence; type: in vivo, Triticum aestivum; conditions: for Plant response rating, Wheat: Preemergence; for Wheat plant response rating: preemergence
Procedure, shortened: as §1

sedge, umbrella = assay: Test D flooded paddy test; type: in vivo, Cyperus difformis; conditions: 250 g ai/ha, applied to paddy water, visual rating after 13 to 14 days, scale 0 to 100 (0 no effect, 100 complete control)
Procedure, shortened: as §2

ragweed [12] = assay: Test C preemergence; type: in vivo, Ambrosia artemisiifolia; conditions: for Plant response rating, Ragweed: Preemergence; for Ragweed plant response rating: preemergence
Procedure, shortened: as §1

soybean [13] = assay: Test C postemergence; type: in vivo, Glycine max; conditions: 10 days
Procedure, shortened: as §1

corn [14] = assay: Test C postemergence; type: in vivo, Zea mays; conditions: 10 days
Procedure, shortened: as §1

rice = assay: Test D flooded paddy test; type: in vivo, Oryza sativa; conditions: 250 g ai/ha, applied to paddy water, visual rating after 13 to 14 days, scale 0 to 100 (0 no effect, 100 complete control)
Procedure, shortened: as §2

pigweed, palmer [15] = assay: Test C preemergence; type: in vivo, Amaranthus palmeri; conditions: 0 to 100 scale (0 no effect, 100 complete control); for Pigweed, Palmer plant response rating: preemergence
Procedure, shortened: as §1

blackgrass [16] = assay: Test C postemergence; type: in vivo, Alopecurus myosuroides; conditions: 10 days
Procedure, shortened: as §1

ryegrass, Italian [17] = assay: Test C preemergence; type: in vivo, Lolium multiflorum; conditions: 0 to 100 scale (0 no effect, 100 complete control); for Ryegrass, Italian plant response rating: preemergence
Procedure, shortened: as §1

oat, wild [18] = assay: Test C preemergence; type: in vivo, Avena fatua; conditions: for Plant response rating, Oat, Wild: Preemergence; for Oat, Wild plant response rating: preemergence
Procedure, shortened: as §1

barnyardgrass [19] = assay: Test C preemergence; type: in vivo, Echinochloa crusgalli; conditions: for Plant response rating, Barnyardgrass: Preemergence; for Barnyardgrass plant response rating: preemergence
Procedure, shortened: as §1

pigweed, palmer [20] = assay: Test C postemergence; type: in vivo, Amaranthus palmeri; conditions: 10 days
Procedure, shortened: as §1

soybean [21] = assay: Test C preemergence; type: in vivo, Glycine max; conditions: for Plant response rating, Soybean: Preemergence; for Soybean plant response rating: preemergence
Procedure, shortened: as §1

horseweed = assay: Test C postemergence; type: in vivo, Erigeron canadensis; conditions: 10 days
Procedure, shortened: as §1

green foxtail [22] = assay: Test C postemergence; type: in vivo, Setaria viridis; conditions: 10 days
Procedure, shortened: as §1

barnyardgrass [23] = assay: Test D flooded paddy test; type: in vivo, Echinochloa crus-galli; conditions: 250 g ai/ha, applied to paddy water, visual rating after 13 to 14 days, scale 0 to 100 (0 no effect, 100 complete control)
Procedure, shortened: as §2

galium = assay: Test C postemergence; type: in vivo, Galium aparine; conditions: 10 days
Procedure, shortened: as §1

[24] = 125 g ai/ha, postemergence, 0 to 100 scale, 0 no effect, 100 complete control
[25] = Postemergence, 500 g ai/ha, visual 0 to 100 scale (0 no effect, 100 complete control)
[26] = 500 g ai/ha, visual rating after 10 days, 0 to 100 scale (0 no effect, 100 complete control)
[27] = Test C, 125 g ai/ha, 0 to 100 scale (0 no effect, 100 complete control)
[28] = Preemergence, 500 g ai/ha, visual rating after 10 days
[29] = 500 g ai/ha, postemergence, 0 to 100 scale (0 no effect, 100 complete control)
[30] = Postemergence, 125 g ai/ha, 0 to 100 scale (0 no effect, 100 complete control)
[31] = 500 g ai/ha, 0 to 100 scale (0 no effect, 100 complete control)
[32] = 125 g ai/ha, 0 to 100 scale, 0 no effect, 100 complete control

CCc1ccc(-n2cnc(C(C)C)n2)cc1C(=O)N1C[C@H](C)Oc2c(C)cccc21 [Compound 240]
50: Plant response rating, Ragweed (ragweed [4]; [24]) | Plant response rating, Wheat (wheat [6]; [25])
35: Plant response rating, Barnyardgrass (Flood) (barnyardgrass [23])
10: Ragweed plant response rating (ragweed [12]; [27]) | Plant response rating, Rice (Flood) (rice)
100: Plant response rating, Kochia (kochia [8]; [26]) | Plant response rating, Foxtail, Green (green foxtail [10]; [26]) | Foxtail, Green plant response rating (green foxtail [10]; [27]) | Plant response rating, Sedge, Umbrella (Flood) (sedge, umbrella) | Plant response rating, Soybean (soybean [13]; [24]) | Plant response rating, Soybean (soybean [13]; [25]) | Plant response rating, Pigweed, Palmer (pigweed, palmer [15]; [28]) | Pigweed, Palmer plant response rating (pigweed, palmer [15]; Test C, 125 g ai/ha) | Plant response rating, Ryegrass, Italian (ryegrass, Italian [17]; [28]) | Ryegrass, Italian plant response rating (ryegrass, Italian [17]; Test C, 125 g ai/ha) | Plant response rating, Barnyardgrass (barnyardgrass [19]; [26]) | Plant response rating, Pigweed, Palmer (pigweed, palmer [20]; [25]) | Plant response rating, Soybean (soybean [21]; [26]) | Soybean plant response rating (soybean [21]; [27]) | Plant response rating, Galium (galium; [24]) | Plant response rating, Galium (galium; [25])
70: Plant response rating, Ryegrass, Italian (ryegrass, Italian [1]; [24]) | Plant response rating, Oat, Wild (oat, wild [7]; [25]) | Kochia plant response rating (kochia [8]; [27]) | Corn plant response rating (corn [9]; [27]) | Plant response rating, Horseweed (horseweed; [25])
60: Blackgrass plant response rating (blackgrass [2]; [27]) | Plant response rating, Oat, Wild (oat, wild [7]; [24]) | Plant response rating, Corn (corn [9]; [26]) | Wheat plant response rating (wheat [11]; [27]) | Plant response rating, Corn (corn [14]; [24])
0: Plant response rating, Horseweed (horseweed; [24])
20: Plant response rating, Wheat (wheat [6]; [24]) | Plant response rating, Ragweed (ragweed [12]; [26])
30: Plant response rating, Kochia (kochia [5]; [24])
40: Plant response rating, Barnyardgrass (barnyardgrass [3]; [24])
90: Plant response rating, Ryegrass, Italian (ryegrass, Italian [1]; [25]) | Plant response rating, Blackgrass (blackgrass [2]; [26]) | Plant response rating, Kochia (kochia [5]; [25]) | Plant response rating, Wheat (wheat [11]; [26]) | Plant response rating, Blackgrass (blackgrass [16]; [25]) | Plant response rating, Oat, Wild (oat, wild [18]; [26]) | Oat, Wild plant response rating (oat, wild [18]; [27]) | Barnyardgrass plant response rating (barnyardgrass [19]; [27]) | Plant response rating, Pigweed, Palmer (pigweed, palmer [20]; [24]) | Plant response rating, Foxtail, Green (green foxtail [22]; [25])
80: Plant response rating, Ducksalad (Flood) (ducksalad) | Plant response rating, Barnyardgrass (barnyardgrass [3]; [25]) | Plant response rating, Ragweed (ragweed [4]; [25]) | Plant response rating, Corn (corn [14]; [25]) | Plant response rating, Blackgrass (blackgrass [16]; [24]) | Plant response rating, Foxtail, Green (green foxtail [22]; [24])

Cc1ncc(-c2cccc(C(=O)N3C[C@H](C)Oc4c(Cl)cccc43)c2)o1 [Compound 352]
20: Plant response rating, Ragweed (ragweed [4]; [29]) | Plant response rating, Ragweed (ragweed [4]; [30]) | Plant response rating, Pigweed, Palmer (pigweed, palmer [20]; [29]) | Plant response rating, Foxtail, Green (green foxtail [22]; [30])
40: Plant response rating, Kochia (kochia [5]; [30]) | Foxtail, Green plant response rating (green foxtail [10]; [31]) | Plant response rating, Ragweed (ragweed [12]; [32]) | Ryegrass, Italian plant response rating (ryegrass, Italian [17]; 500 g ai/ha)
50: Plant response rating, Kochia (kochia [5]; [29]) | Plant response rating, Galium (galium; [29])
0: Blackgrass plant response rating (blackgrass [2]; [31]) | Plant response rating, Blackgrass (blackgrass [2]; [32]) | Plant response rating, Ducksalad (Flood) (ducksalad) | Plant response rating, Oat, Wild (oat, wild [7]; [29]) | Plant response rating, Oat, Wild (oat, wild [7]; [30]) | Kochia plant response rating (kochia [8]; [31]) | Plant response rating, Kochia (kochia [8]; [32]) | Corn plant response rating (corn [9]; [31]) | Plant response rating, Corn (corn [9]; [32]) | Plant response rating, Foxtail, Green (green foxtail [10]; [32]) | Wheat plant response rating (wheat [11]; [31]) | Plant response rating, Wheat (wheat [11]; [32]) | Plant response rating, Sedge, Umbrella (Flood) (sedge, umbrella) | Ragweed plant response rating (ragweed [12]; [31]) | Plant response rating, Corn (corn [14]; [29]) | Plant response rating, Corn (corn [14]; [30]) | Plant response rating, Rice (Flood) (rice) | Plant response rating, Blackgrass (blackgrass [16]; [29]) | Plant response rating, Blackgrass (blackgrass [16]; [30]) | Oat, Wild plant response rating (oat, wild [18]; [31]) | Plant response rating, Oat, Wild (oat, wild [18]; [32]) | Barnyardgrass plant response rating (barnyardgrass [19]; [31]) | Plant response rating, Barnyardgrass (barnyardgrass [19]; [32]) | Soybean plant response rating (soybean [21]; [31]) | Plant response rating, Soybean (soybean [21]; [32]) | Plant response rating, Horseweed (horseweed; [30]) | Plant response rating, Barnyardgrass (Flood) (barnyardgrass [23])
90: Plant response rating, Soybean (soybean [13]; [29])
60: Plant response rating, Galium (galium; [30])
80: Plant response rating, Soybean (soybean [13]; [30])
10: Plant response rating, Ryegrass, Italian (ryegrass, Italian [1]; [29]) | Plant response rating, Ryegrass, Italian (ryegrass, Italian [1]; [30]) | Plant response rating, Barnyardgrass (barnyardgrass [3]; [29]) | Plant response rating, Barnyardgrass (barnyardgrass [3]; [30]) | Plant response rating, Wheat (wheat [6]; [29]) | Plant response rating, Wheat (wheat [6]; [30]) | Pigweed, Palmer plant response rating (pigweed, palmer [15]; 500 g ai/ha) | Plant response rating, Horseweed (horseweed; [29]) | Plant response rating, Foxtail, Green (green foxtail [22]; [29])
